# pIC50: −log10 of the molar value.
# Assays:
# [1] = target: T1, Heat shock factor protein 1 (Homo sapiens) (UniProt Q00613); assay: Inhibition of HSF1 in human HCT116 cells assessed as potentiation of SM258-induced reduction in HSF1 at 15 uM relative to SM258 alone; assay type: cell-based; set-up: scale not given: the % may be the effect or the level left; conditions: HCT-116
# T1 sequence (whole entry): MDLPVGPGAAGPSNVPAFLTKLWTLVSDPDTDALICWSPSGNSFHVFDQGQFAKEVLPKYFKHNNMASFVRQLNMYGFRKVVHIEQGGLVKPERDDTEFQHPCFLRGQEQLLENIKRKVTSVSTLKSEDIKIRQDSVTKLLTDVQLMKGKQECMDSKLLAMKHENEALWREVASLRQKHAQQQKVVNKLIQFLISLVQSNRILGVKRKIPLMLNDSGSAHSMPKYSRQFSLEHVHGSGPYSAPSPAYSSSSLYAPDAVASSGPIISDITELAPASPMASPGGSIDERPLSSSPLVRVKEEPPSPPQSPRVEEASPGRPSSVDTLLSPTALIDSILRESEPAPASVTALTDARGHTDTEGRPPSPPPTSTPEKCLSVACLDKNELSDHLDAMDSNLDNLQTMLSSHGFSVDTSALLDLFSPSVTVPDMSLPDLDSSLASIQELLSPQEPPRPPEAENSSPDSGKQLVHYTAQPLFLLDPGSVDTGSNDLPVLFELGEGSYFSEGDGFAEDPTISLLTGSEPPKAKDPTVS
# [2] = target: T1, Heat shock factor protein 1 (Homo sapiens); assay: Inhibition of HSF1 in human HeLa cells assessed as potentiation of radicicol-induced increase in cell death at 2 uM relative to radicicol alone; assay type: cell-based; set-up: scale not given: the % may be the effect or the level left
# [3] = target: T1, Heat shock factor protein 1 (Homo sapiens); assay: Inhibition of HSF1 in human HCT116 cells assessed as potentiation of SM253-induced increase in cell death at 50 uM relative to SM253 alone; assay type: cell-based; set-up: scale not given: the % may be the effect or the level left; conditions: HCT-116
# [4] = target: T1, Heat shock factor protein 1 (Homo sapiens); assay: Inhibition of HSF1 in human HCT116 cells assessed as potentiation of SM253-induced reduction in HSF1 at 5 uM relative to SM253 alone; assay type: cell-based; set-up: scale not given: the % may be the effect or the level left; conditions: HCT-116
# [5] = target: T1, Heat shock factor protein 1 (Homo sapiens); assay: Inhibition of HSF1 in human MIAPaCa2 cells assessed as potentiation of SM253-induced increase in cell death at 50 uM relative to SM253 alone; assay type: cell-based; set-up: scale not given: the % may be the effect or the level left; conditions: MIA PaCa-2
# [6] = target: T1, Heat shock factor protein 1 (Homo sapiens); assay: Inhibition of HSF1 in human HCT116 cells assessed as potentiation of SM253-induced reduction in HSF1 at 50 uM relative to SM253 alone; assay type: cell-based; set-up: scale not given: the % may be the effect or the level left; conditions: HCT-116
# [7] = target: T1, Heat shock factor protein 1 (Homo sapiens); assay: Inhibition of HSF1 in human HCT116 cells assessed as potentiation of SM253-induced increase in cell death at 5 uM relative to SM253 alone; assay type: cell-based; set-up: scale not given: the % may be the effect or the level left; conditions: HCT-116
# [8] = target: T1, Heat shock factor protein 1 (Homo sapiens); assay: Inhibition of HSF1 in human HCT116 cells assessed as potentiation of SM258-induced reduction in HSF1 at 30 uM relative to SM258 alone; assay type: cell-based; set-up: scale not given: the % may be the effect or the level left; conditions: HCT-116
# [9] = target: T1, Heat shock factor protein 1 (Homo sapiens); assay: Inhibition of HSF1 in human HCT116 cells assessed as potentiation of SM258-induced increase in cell death at 30 uM relative to SM258 alone; assay type: cell-based; set-up: scale not given: the % may be the effect or the level left; conditions: HCT-116
# [10] = target: T1, Heat shock factor protein 1 (Homo sapiens); assay: Inhibition of HSF1 in human HCT116 cells assessed as potentiation of SM258-induced increase in cell death at 15 uM relative to SM258 alone; assay type: cell-based; set-up: scale not given: the % may be the effect or the level left; conditions: HCT-116
# [11] = target: T1, Heat shock factor protein 1 (Homo sapiens); assay: Inhibition of HSF1 in human MIAPaCa2 cells assessed as potentiation of SM253-induced reduction in HSF1 at 50 uM relative to SM253 alone; assay type: cell-based; set-up: scale not given: the % may be the effect or the level left; conditions: MIA PaCa-2
# [12] = target: T1, Heat shock factor protein 1 (Homo sapiens); assay: Inhibition of HSF1 in human ASB244 cells assessed as potentiation of geldanamycin-induced reduction in cell proliferation at 20 uM relative to geldanamycin alone; assay type: cell-based; set-up: scale not given: the % may be the effect or the level left
# [13] = target: T1, Heat shock factor protein 1 (Homo sapiens); assay: Inhibition of HSF1 in human HL60 cells assessed as potentiation of 17-AAG-induced increase in apoptosis at 400 uM relative to 17-AAG alone; assay type: cell-based; set-up: scale not given: the % may be the effect or the level left; conditions: HL-60
# [14] = target: T1, Heat shock factor protein 1 (Homo sapiens); assay: Inhibition of HSF1 in human ASB145 cells assessed as potentiation of geldanamycin-induced reduction in cell proliferation at 20 uM relative to geldanamycin alone; assay type: cell-based; set-up: scale not given: the % may be the effect or the level left
# [15] = target: T1, Heat shock factor protein 1 (Homo sapiens); assay: Inhibition of HSF1 in human HL60 cells assessed as potentiation of 17-AAG-induced reduction in cologenicity at 400 uM relative to 17-AAG alone; assay type: cell-based; set-up: scale not given: the % may be the effect or the level left; conditions: HL-60
# [16] = target: T1, Heat shock factor protein 1 (Homo sapiens); assay: Inhibition of HSF1 in human ASB244 cells assessed as potentiation of geldanamycin-induced reduction in cell migration at 10 uM relative to geldanamycin alone; assay type: cell-based; set-up: scale not given: the % may be the effect or the level left
# A-375 [17] = assay: Cytotoxicity against human A375 cells in presence of HSF1 knock down treatment; assay type: functional, cell-based
# A2058 [18] = assay: Cytotoxicity against human A2058 cells in absence of HSF1 knock down treatment; assay type: functional, cell-based
# A2058 [19] = assay: Cytotoxicity against human A2058 cells in presence of HSF1 knock down treatment; assay type: functional, cell-based
# A-375 [20] = assay: Cytotoxicity against human A375 cells in absence of HSF1 knock down treatment; assay type: functional, cell-based
# [21] = Induction of cell death in human MIAPaCa2 cells at 50 uM; assay type: functional, MIA PaCa-2
# [22] = Antitumor activity against human MIAPaCa2 cells xenografted in mouse assessed as reduction in tumor volume at 150 mg/kg; assay type: functional, MIA PaCa-2; set-up: scale not given: the % may be the effect or the level left
# [23] = Induction of cell death in human PANC1 cells at 50 uM; assay type: functional, PANC-1
# [24] = target: T1, Heat shock factor protein 1 (Homo sapiens); assay: Inhibition of HSF1 in human MM.1S cells assessed as potentiation of NVP-AUY-922-induced reduction in cell proliferation at 6 nM relative to NVP-AUY-922 alone; assay type: cell-based; set-up: scale not given: the % may be the effect or the level left
# [25] = target: T1, Heat shock factor protein 1 (Homo sapiens); assay: Inhibition of HSF1 in human H929 cells assessed as potentiation of 17-AAG-induced icrease in cell death at 100 nM relative to 17-AAG alone; assay type: cell-based; set-up: scale not given: the % may be the effect or the level left
# [26] = target: T1, Heat shock factor protein 1 (Homo sapiens); assay: Inhibition of HSF1 in human HeLa cells assessed as potentiation of radicicol and heat-induced increase in cell death at 60 nM relative to radicicol and heat alone; assay type: cell-based; set-up: scale not given: the % may be the effect or the level left
# [27] = target: T1, Heat shock factor protein 1 (Homo sapiens); assay: Inhibition of HSF1 in human INA63 cells assessed as potentiation of NVP-AUY-922-induced reduction in cell proliferation at 5 nM relative to NVP-AUY-922 alone; assay type: cell-based; set-up: scale not given: the % may be the effect or the level left
# HCT-116 = assay: Antitumor activity against human HCT116 cells xenografted in mouse assessed as reduction in tumor size at 50 mg/kg; assay type: functional
# [28] = target: T2, Heat shock factor protein 1 (Homo sapiens, UniProt Q00613); assay: Inhibition of HSF1 (unknown origin) assessed as reduction in HSF1--mediated HSP transcription
# T2 sequence (Q00613 whole entry): T1 sequence (whole entry)
smiles,measurement,setting,value
CCC1CN2CCc3cc(OC)c(OC)cc3C2CC1CC1NCCc2ccccc21 (centres undefined),Activity,[1],50%
same,Activity,[2],30%
same,Activity,[3],77%
same,Activity,[4],30%
same,Activity,[5],64%
same,Activity,[6],60%
same,Activity,[7],50%
same,Activity,[8],> 99%
same,Activity,[9],95%
same,Activity,[10],77%
same,Activity,[11],55%
O=CN1CC/C(=C/c2ccc3c(c2)OCO3)C1=O,Activity,[12],52%
same,Activity,[13],20%
same,Activity,[14],72%
same,Activity,[15],99%
same,Activity,[16],75%
COc1cccc(-c2cc(F)ccc2[C@H]2Cc3nc(N)nc(C)c3C(=O)N2)n1,pIC50,A-375 [17],8.22
same,pIC50,A2058 [18],7.90
same,pIC50,A2058 [19],8.28
same,pIC50,A-375 [20],7.72
CCCCCCCc1ccc(C#Cc2nc(C(N)=O)n([C@@H]3O[C@H](CO)[C@@H](O)[C@H]3O)n2)cc1,Activity,[21],90%
same,Activity,[22],60%
same,Activity,[23],80%
CC(C)[C@]12O[C@H]1[C@@H]1O[C@]13[C@]1(O[C@H]1C[C@H]1C4=C(CC[C@@]13C)C(=O)OC4)[C@@H]2O,Activity,[24],35%
same,Activity,[25],40%
same,Activity,[26],45%
same,Activity,[27],45%
CNc1ccc([N+](=O)[O-])c(Nc2ccc3[nH]ncc3c2)n1,inhibition in vivo at 50 mg/kg,HCT-116,50%
same,pIC50,[28],5.92
